What was measured:
HeLa cells = assay: Chemical modifications on luciferase mRNA, HeLa transfection (RLU); type: cell-based; conditions: 83 ng luciferase mRNA, 18 to 22 hours
Experimental: The day before transfection, 20,000 HeLa cells (ATCC no. CCL-2; Manassas, Va.) were harvested by treatment with Trypsin-EDTA solution (Life Technologies, Grand Island, N.Y.) and seeded in a total volume of 100 ul EMEM medium (supplemented with 10% FCS and 1× Glutamax) per well in a 96-well cell culture plate (Corning, Manassas, Va.). The cells were grown at 37° C. in 5% CO2 atmosphere overnight. […] Lipofectamine 2000 (LifeTechnologies, Grand Island, N.Y.) was used as transfection reagent and 0.2 ul were diluted in 10 ul final volume of OPTI-MEM. After 5 minutes of incubation at room temperature, both solutions were combined and incubated an additional 15 minute at room temperature. Then the 20 ul combined solution was added to the 100 ul cell culture medium containing the HeLa cells and incubated at room temperature.
After 18 to 22 hours of incubation cells expressing luciferase were lysed with 100 ul of Passive Lysis Buffer (Promega, Madison, Wis.) according to manufacturer instructions. Aliquots of the lysates were transferred to white opaque polystyrene 96-well plates (Corning, Manassas, Va.) and combined with 100 ul complete luciferase assay solution (Promega, Madison, Wis.). […] The plate reader was a BioTek Synergy H1 (BioTek, Winooski, Vt.). The background signal of the plates without reagent was about 200 relative light units per well.

Balb-C mice [1] = assay: Intramuscular and subcutaneous administration of modified luciferase mRNA in PBS (whole-body flux); type: in vivo, mouse
Experimental: The mice were imaged at 2 hours, 8 hours, 24 hours, 48 hours, 72 hours, 96 hours, 120 hours and 144 hours for intramuscular delivery and 2 hours, 8 hours, 24 hours, 48 hours, 72 hours, 96 hours and 120 hours for subcutaneous delivery. Twenty minutes prior to imaging, mice were injected intraperitoneally with a D-luciferin solution at 150 mg/kg. Animals were then anesthetized and images were acquired with an IVIS Lumina II imaging system (Perkin Elmer). Bioluminescence was measured as total flux (photons/second) of the entire mouse. The average total flux (photons/second) for intramuscular administration is shown in Table 113 and the average total flux (photons/second) for subcutaneous administration is shown in Table 114. The background signal was 3.79E+05 (p/s). The peak expression for intramuscular administration was seen between 24 and 48 hours for all chemistry and expression was still detected at 144 hours.

Balb-C mice [2] = assay: Lipoplex study, whole-body flux (Table 129); type: in vivo, mouse; conditions: lipoplexed luciferase mRNA, 0.10 mg/kg
Experimental: (§1) The formulation was administered intravenously (I.V.), intramuscularly (I.M.) or subcutaneously (S.C.) to Balb-C mice at a dose of 0.10 mg/kg.
(§2) Twenty minutes prior to imaging, mice were injected intraperitoneally with a D-luciferin solution at 150 mg/kg. Animals were then anesthetized and images were acquired with an IVIS Lumina II imaging system (Perkin Elmer). Bioluminescence was measured as total flux (photons/second) of the entire mouse. The mice were imaged at 8 hours, 24 hours and 48 hours after dosing and the average total flux (photons/second) was measured for each route of administration and chemical modification. The background signal was about 3.91E+05 p/s. Organs were imaged at 6 hours and the average total flux (photons/second) was measured for the liver, spleen, lung and kidney. A control for each organ was also analyzed.

[3] = tested on: liver, spleen, lung and kidney; assay: Lipoplex study, organ flux at 6 hours (Table 130); type: in vivo, mouse; conditions: lipoplexed luciferase mRNA, 0.10 mg/kg
Experimental: as §1, §2

human EPO [4] = assay: Example 43 multi-dose/multi-administration IM, serum human EPO; type: in vivo, Sprague-Dawley rats; conditions: rat serum 13 h post I.M.
Experimental: The dosing vehicle (F. buffer) was used as a control.
Animals (n=5), Sprague-Dawley rats, were injected IM (intramuscular) for the single unit dose of 100 ug (delivered to one thigh). For multi-dosing 6 doses of 100 ug (delivered to two thighs) were used for both EPO and G-CSF mmRNA. Control dosing involved use of buffer at a single dose. Human EPO blood levels were evaluated 13 hrs post injection.
Human EPO protein was measured in rat serum 13 h post I.M. Five groups of rats were treated and evaluated.

human EPO [5] = assay: Example 48 split dose study IM, serum human EPO, product per unit drug and dose splitting factor; type: in vivo, mice; conditions: for Avg. pmol/mL human EPO: serum 13 h
Experimental: The dosing vehicle (F. buffer) consisted of 150 mM NaCl, 2 mM CaCl2, 2 mM Nat phosphate (1.4 mM monobasic sodium phosphate; 0.6 mM dibasic sodium phosphate), and 0.5 mM EDTA, pH 6.5. The pH was adjusted using sodium hydroxide and the final solution was filter sterilized.
Animals (n=5) were injected IM (intramuscular) for the single unit dose of 100 ug. For multi-dosing, two schedules were used, 3 doses of 100 ug and 6 doses of 100 ug. For the split dosing scheme, two schedules were used, 3 doses at 33.3 ug and 6 doses of 16.5 ug mmRNA. Control dosing involved use of buffer only at 6 doses. […] Blood and muscle tissue were evaluated 13 hrs post injection.
Human EPO protein was measured in mouse serum 13 h post I.M. single, multi- or split dosing of the EPO mmRNA in buffer. Seven groups of mice (n=5 mice per group) were treated and evaluated.
The splitting factor is defined as the product per unit drug divided by the single dose product per unit drug (PUD). For example for treatment group 2 the value 0.28 or product (EPO) per unit drug (mmRNA) is divided by the single dose product per unit drug of 0.14. The result is 2. Likewise, for treatment group 4, the value 1.1 or product (EPO) per unit drug (mmRNA) is divided by the single dose product per unit drug of 0.14. The result is 7.9. Consequently, the dose splitting factor (DSF) may be used as an indicator of the efficacy of a split dose regimen. For any single administration of a total daily dose, the DSF should be equal to 1. Therefore any DSF greater than this value in a split dose regimen is an indication of increased efficacy.

5mC/pU: Luciferase mRNA SEQ ID NO: 16, polyA about 140, fully modified with 5-methylcytosine and pseudouridine
RLU (HeLa cells): 1601234 RLU
Flux (Balb-C mice [1]; Balb-C mice, intramuscular 2.5 mg/kg in PBS, 2 hours): 1.98E+07 p/s
Flux (Balb-C mice [1]; Balb-C mice, subcutaneous 2.5 mg/kg in PBS, 2 hours): 5.26E+06 p/s
Flux (Balb-C mice [1]; intramuscular 2.5 mg/kg, 8 hours): 1.42E+07 p/s
Flux (Balb-C mice [1]; intramuscular 2.5 mg/kg, 24 hours): 2.92E+07 p/s
Flux (Balb-C mice [1]; intramuscular 2.5 mg/kg, 48 hours): 2.64E+07 p/s
Flux (Balb-C mice [1]; intramuscular 2.5 mg/kg, 72 hours): 2.18E+07 p/s
Flux (Balb-C mice [1]; intramuscular 2.5 mg/kg, 96 hours): 2.75E+07 p/s
Flux (Balb-C mice [1]; intramuscular 2.5 mg/kg, 120 hours): 2.19E+07 p/s
Flux (Balb-C mice [1]; intramuscular 2.5 mg/kg, 144 hours): 9.17E+06 p/s
Flux (Balb-C mice [1]; subcutaneous 2.5 mg/kg, 8 hours): 2.32E+06 p/s
Flux (Balb-C mice [1]; subcutaneous 2.5 mg/kg, 24 hours): 2.67E+06 p/s
Flux (Balb-C mice [1]; subcutaneous 2.5 mg/kg, 48 hours): 1.22E+06 p/s
Flux (Balb-C mice [1]; subcutaneous 2.5 mg/kg, 72 hours): 1.12E+06 p/s
Flux (Balb-C mice [1]; subcutaneous 2.5 mg/kg, 96 hours): 5.16E+05 p/s
Flux (Balb-C mice [1]; subcutaneous 2.5 mg/kg, 120 hours): 3.80E+05 p/s
Flux (Balb-C mice [2]; I.M., 8 hrs): 1.90E+06 p/s
Flux (Balb-C mice [2]; I.M., 24 hrs): 9.33E+05 p/s
Flux (Balb-C mice [2]; I.M., 48 hrs): 8.51E+05 p/s
Flux (Balb-C mice [2]; I.V., 8 hrs, background about 3.91E+05 p/s): 5.76E+06 p/s
Flux (Balb-C mice [2]; I.V., 24 hrs): 1.02E+06 p/s
Flux (Balb-C mice [2]; I.V., 48 hrs): 4.53E+05 p/s
Flux (Balb-C mice [2]; S.C., 8 hrs): 2.85E+06 p/s
Flux (Balb-C mice [2]; S.C., 24 hrs): 6.66E+05 p/s
Flux (Balb-C mice [2]; S.C., 48 hrs): 3.24E+05 p/s
Inj. Site Flux ([3]; I.M.): 1.15E+06 p/s
Kidney Flux ([3]; I.M.): 1.44E+04 p/s
Liver Flux ([3]; I.M.): 2.46E+04 p/s
Lung Flux ([3]; I.M.): 1.50E+04 p/s
Spleen Flux ([3]; I.M.): 1.38E+04 p/s
Kidney Flux ([3]; I.V.): 1.77E+04 p/s
Liver Flux ([3]; I.V.): 5.26E+05 p/s
Lung Flux ([3]; I.V.): 4.28E+06 p/s
Spleen Flux ([3]; I.V.): 2.04E+07 p/s
Inj. Site Flux ([3]; S.C.): 4.46E+04 p/s
Kidney Flux ([3]; S.C.): 1.69E+04 p/s
Liver Flux ([3]; S.C.): 1.55E+04 p/s
Lung Flux ([3]; S.C.): 1.45E+04 p/s
Spleen Flux ([3]; S.C.): 1.67E+04 p/s

Unmodified Luciferase: unmodified luciferase mRNA SEQ ID NO: 16, polyA about 140, Cap1
RLU (HeLa cells): 33980 RLU

B1: Human EPO mmRNA (nucleic acid, listed as Homo sapiens)
sense: GGGAAAUAAGAGAGAAAAGAAGAGUAAGAAGAAAUAUAAGAGCCACCAUGGGAGUGCACGAGUGUCCCGCGUGGUUGUGGUUGCUGCUGUCGCUCUUGAGCCUCCCACUGGGACUGCCUGUGCUGGGGGCACCACCCAGAUUGAUCUGCGACUCACGGGUACUUGAGAGGUACCUUCUUGAAGCCAAAGAAGCCGAAAACAUCACAACCGGAUGCGCCGAGCACUGCUCCCUCAAUGAGAACAUUACUGUACCGGAUACAAAGGUCAAUUUCUAUGCAUGGAAGAGAAUGGAAGUAGGACAGCAGGCCGUCGAAGUGUGGCAGGGGCUCGCGCUUUUGUCGGAGGCGGUGUUGCGGGGUCAGGCCCUCCUCGUCAACUCAUCACAGCCGUGGGAGCCCCUCCAACUUCAUGUCGAUAAAGCGGUGUCGGGGCUCCGCAGCUUGACGACGUUGCUUCGGGCUCUGGGCGCACAAAAGGAGGCUAUUUCGCCGCCUGACGCGGCCUCCGCGGCACCCCUCCGAACGAUCACCGCGGACACGUUUAGGAAGCUUUUUAGAGUGUACAGCAAUUUCCUCCGCGGAAAGCUGAAAUUGUAUACUGGUGAAGCGUGUAGGACAGGGGAUCGCUGAUAAGCUGCCUUCUGCGGGGCUUGCCUUCUGGCCAUGCCCUUCUUCUCUCCCUUGCACCUGUACCUCUUGGUCUUUGAAUAAAGCCUGAGUAGGAAG
modifications: 5' Cap1, polyA tail ~160 nt
Avg. human EPO (human EPO [4]; 1 × 100 ug, total dose 100 ug): 143 pg/mL
Avg. human EPO (human EPO [4]; 6 × 100 ug, total dose 600 ug): 256 pg/mL
Dose Splitting Factor (human EPO [5]; 1 × 100 ug, total 100 ug): 1
Polypeptide per unit drug (human EPO [5]; 1 × 100 ug, total 100 ug): 0.14 pmol/µg
Avg. pmol/mL human EPO (human EPO [5]; 1 × 100 ug, total 100 ug): 14.3 pmol/mL
Dose Splitting Factor (human EPO [5]; 3 × 33.3 ug, total 100 ug): 7.9
Polypeptide per unit drug (human EPO [5]; 3 × 33.3 ug, total 100 ug): 1.1 pmol/µg
Avg. pmol/mL human EPO (human EPO [5]; 3 × 33.3 ug, total 100 ug): 104.7 pmol/mL
Dose Splitting Factor (human EPO [5]; 3 × 100 ug, total 300 ug): 2
Polypeptide per unit drug (human EPO [5]; 3 × 100 ug, total 300 ug): 0.28 pmol/µg
Avg. pmol/mL human EPO (human EPO [5]; 3 × 100 ug, total 300 ug): 82.5 pmol/mL
Dose Splitting Factor (human EPO [5]; 6 × 16.5 ug, total 100 ug): 9.3
Polypeptide per unit drug (human EPO [5]; 6 × 16.5 ug, total 100 ug): 1.3 pmol/µg
Avg. pmol/mL human EPO (human EPO [5]; 6 × 16.5 ug, total 100 ug): 127.9 pmol/mL
Dose Splitting Factor (human EPO [5]; 6 × 100 ug, total 600 ug): 3.3
Polypeptide per unit drug (human EPO [5]; 6 × 100 ug, total 600 ug): 0.46 pmol/µg
Avg. pmol/mL human EPO (human EPO [5]; 6 × 100 ug, total 600 ug): 273.0 pmol/mL
